Data reported in ChEMBL document CHEMBL1123458, “2-Phenylindenes: development of a new mammary tumor inhibiting antiestrogen by combination of estrogenic side effect lowering structural elements” (1986).

Tests used:
[1] = biological target: Estrogen receptor (Bos taurus) (UniProt Q9XSB5+P49884); experiment: Inhibition of [3H]estradiol binding to calf uterine estrogen receptor; type: protein assay
[2] = biological target: T1, Estrogen receptor (Mus musculus) (UniProt O08537+P19785); experiment: Anti-uterotrophic effect in mice at 1.0 ug; type: functional
T1 sequence (O08537 whole entry, looked up): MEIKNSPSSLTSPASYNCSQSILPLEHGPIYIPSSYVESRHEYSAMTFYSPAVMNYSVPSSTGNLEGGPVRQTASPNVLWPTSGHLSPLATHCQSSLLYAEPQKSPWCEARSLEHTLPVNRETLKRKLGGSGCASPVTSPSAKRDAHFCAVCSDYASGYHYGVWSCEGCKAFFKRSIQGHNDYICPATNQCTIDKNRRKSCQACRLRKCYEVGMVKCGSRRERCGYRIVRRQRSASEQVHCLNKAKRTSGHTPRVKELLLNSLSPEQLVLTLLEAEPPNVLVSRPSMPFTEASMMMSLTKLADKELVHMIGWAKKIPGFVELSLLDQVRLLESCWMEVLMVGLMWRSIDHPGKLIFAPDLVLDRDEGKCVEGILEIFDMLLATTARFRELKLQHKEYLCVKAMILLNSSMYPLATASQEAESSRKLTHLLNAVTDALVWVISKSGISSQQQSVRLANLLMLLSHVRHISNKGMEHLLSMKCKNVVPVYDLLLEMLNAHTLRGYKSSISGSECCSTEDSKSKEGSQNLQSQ
T1 sequence (P19785 whole entry, looked up): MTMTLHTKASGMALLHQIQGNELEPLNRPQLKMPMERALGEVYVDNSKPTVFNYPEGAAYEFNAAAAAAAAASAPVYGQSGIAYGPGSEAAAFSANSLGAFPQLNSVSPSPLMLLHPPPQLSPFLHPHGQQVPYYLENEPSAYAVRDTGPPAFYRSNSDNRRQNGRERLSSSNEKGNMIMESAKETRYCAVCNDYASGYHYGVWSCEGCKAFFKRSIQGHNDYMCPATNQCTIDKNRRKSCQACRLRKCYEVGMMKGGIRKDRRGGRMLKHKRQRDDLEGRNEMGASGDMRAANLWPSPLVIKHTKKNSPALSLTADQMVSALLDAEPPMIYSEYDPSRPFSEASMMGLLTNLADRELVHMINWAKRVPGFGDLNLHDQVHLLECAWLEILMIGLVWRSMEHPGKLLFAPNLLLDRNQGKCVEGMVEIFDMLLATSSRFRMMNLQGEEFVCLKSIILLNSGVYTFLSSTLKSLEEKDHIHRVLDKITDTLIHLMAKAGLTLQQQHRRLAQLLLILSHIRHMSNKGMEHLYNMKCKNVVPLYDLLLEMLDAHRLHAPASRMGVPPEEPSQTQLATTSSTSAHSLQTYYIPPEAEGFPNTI

[3] = biological target: T1, Estrogen receptor (Mus musculus); experiment: Anti-uterotrophic effect in mice at 25 ug; type: functional
[4] = biological target: T1, Estrogen receptor (Mus musculus); experiment: Anti-uterotrophic effect in immature mice at 1.0 ug; type: functional
[5] = biological target: T1, Estrogen receptor (Mus musculus); experiment: Anti-uterotrophic effect in immature mice at 25 ug; type: functional
[6] = biological target: T1, Estrogen receptor (Mus musculus); experiment: Anti-uterotrophic effect in mice at 5 ug; type: functional
[7] = biological target: T1, Estrogen receptor (Mus musculus); experiment: Anti-uterotrophic effect in immature mice at 5 ug; type: functional
[8] = biological target: T1, Estrogen receptor (Mus musculus); experiment: Anti-uterotrophic effect in mice at 100 ug; type: functional
[9] = biological target: T1, Estrogen receptor (Mus musculus); experiment: Anti-uterotrophic effect in immature mice at 100 ug; type: functional

Compound	RBA [1]	Effect [2]	Effect [3]	inhibition [4]	inhibition [5]	Effect [6]	inhibition [7]	Effect [8]	inhibition [9]
CC(=O)c1ccc(C2=C(C(C)C)c3cc(C(C)=O)c(C(C)=O)cc3C2(C)C)cc1C(C)=O	1.7%	29 mg 100g-1	32.5 mg 100g-1	28%	11%	–	–	–	–
CCC1=C(c2cccc(C(C)=O)c2)C(C)c2ccc(C(C)=O)cc21 (configuration not stated)	1.8%	30.1 mg 100g-1	40.2 mg 100g-1	48%	9%	34.8 mg 100g-1	30%	–	–
CC/C(=C(/CC)c1ccc(C(C)=O)c(C(C)=O)c1)c1ccc(C(C)=O)c(C(C)=O)c1	1%	33.8 mg 100g-1	40.4 mg 100g-1	31%	8%	27.4 mg 100g-1	54%	41.3 mg 100g-1	5%
CC/C(=C(/CC)c1cccc(C(C)=O)c1)c1cccc(C(C)=O)c1	2.2%	–	–	–	–	–	–	–	–
CC(=O)c1cccc(C2=C(C(C)C)c3cc(C(C)=O)ccc3C2(C)C)c1	2%	30.3 mg 100g-1	44.7 mg 100g-1	21%	0%	–	–	–	–
